{"source": "patent US7674579B2", "about": "“Apoptosis-based evaluation of chemosensitivity in cancer patients” (Yale University, priority 2003, dated 2010)", "key": {"[1]": {"test_system": "CP70", "assay": "Clonogenic assay, CP70 cell line", "type": "cell-based, human", "experimental": "(§1) Ovarian cancer cell lines HEY (gift from Dr. J M Trent, (26)), A2780 and CP70 (gifts from Dr. T C Hamilton, (27)) were cultured at 37° C. in a 5% CO2 atmosphere. Culture medium varied with the cell line: DME/F12 plus 1% calf serum (HEY); DME/F12 plus 10% FBS, 584 ug/ml L glutamine (A2780 and CP70). All formulations contained 100 μg/ml streptomycin, 62.5 μg/ml penicillin and 2.5 μg/ml amphotericin. Primary cells were cultured in 50% 199 media and 50% MCDB 105 media (Sigma), supplemented with 10% fetal bovine serum (Hyclone, South Logan, Utah), 10 mM HEPES, 0.1 mM MEM non-essential amino acids, 1 mM sodium pyruvate, 100 nM penicili/streptomycin (Gibco) and 4 ng/ml EGF (Sigma). For drug treatments, approximately 1×10^5 cells in exponential growth were sub-cultured in a 25 cm^2 flask per treatment. Carboplatin (Sigma C2538) or paclitaxel (Sigma T7402) was added to the media after the cells reached 60-70% confluence as described in the Results.\nCells were seeded at 600 per 60 mm culture dish and incubated overnight to establish adherence then exposed to varying concentrations of drug for 4 hours. Medium was replaced and incubation was continued for 10-14 days. The cells were washed with 0.9% saline solution then fixed and stained in 72% methanol, 10% formaldehyde, 0.25% crystal violet. Colonies greater than 30 cells were counted. Percent survival was calculated based on the number of colonies in untreated dishes. Each treatment was done at least in duplicate."}, "[2]": {"test_system": "A2780 cells", "assay": "Caspase-3 assay (dose response and time course), A2780 cells", "type": "cell-based, human", "experimental": "as §1, with “For drug treatments, approximately 1×10^5 cells in exponential growth were sub-cultured in a 25 cm^2 flask per treatment. Carboplatin (Sigma C2538) or paclitaxel (Sigma T7402) was added to the media after the cells reached 60-70% confluence as described in the Results.” left out\n(§2) After drug treatment, cells were lysed and collected in cold 10 mM Tris, pH 7.5, 10 mM Na Phosphate buffer, 130 mM NaCl, 1% Triton X-100, 10 mM Na Pyrophosphate plus freshly added Protease Inhibitor Cocktail (20 μl/ml, Sigma P8340) and 2 MM PMSF. […] Protein concentration was determined by BioRad Protein Assay (BioRad).\n(§3) Caspase-3 activity was measured in duplicate from 50 μg cell lysate samples (lysate comprised less than 20% of the total reaction volume)(Promega Corp. CaspACE™ Assay System, Colorimetric). […] Absorbance of the cleaved product was read at 405 nm in a Dynatech MR3000 plate reader. Blank values were subtracted and caspase-3 activity was expressed as the absorbance at 405 nm of the cleaved substrate (pNA). […]"}, "[3]": {"test_system": "CP70 cells", "assay": "Western blot for activated caspase-3, CP70 cells", "type": "cell-based, human", "experimental": "(§4) Cells were treated with drug as described above. Cells were then scraped from the culture vessel, pelleted at 2000 rpm at room temperature and lysed in phosphate buffered saline with 1% NP40, 0.1% sodium dodecyl sulfate. After 20 min on ice, debris was removed by centrifugation at 14,000×g at 4° C.\n(§5) Protein concentration was determined and 20 μg samples were denatured in sample buffer (2.5% SDS, 10% glycerol, 5% b-mercaptoethanol, 0.15 M Tris (pH 6.8) and 0.01% broinophenol blue) and subjected to 10 or 12% SDS-PAGE. Proteins were transferred to PVDF membranes (Immobilon, Millipore, Bedford, Mass.) at 100V for 105 min.\n(§6) Western blots were performed as previously described (32) (28). Antibodies and concentrations were: rabbit anti-actin (Sigma, 1:10,000), rabbit anti-proform caspase-3 (Santa Cruz, Santa Cruz Calif. 1:1000), rabbit anti-cleaved-caspase-3 (CellSignaling, 1:1000). Antibody binding was determined by enhanced chemiluminescence detection of peroxidase conjugated secondary antibodies (Vector)."}, "[4]": {"test_system": "A2780 ovarian cancer cells", "assay": "Western blot for activated caspase-3, A2780 cells", "type": "cell-based, human", "experimental": "as §4, §5, §6"}, "[5]": {"test_system": "EOC R182 cells", "assay": "Western blot for activated caspase-3, EOC R182 cells", "type": "cell-based, human", "experimental": "as §4, §5, §6"}, "[6]": {"test_system": "EOC cells S 103", "assay": "TUNEL assay, EOC cells S103", "type": "cell-based, human", "conditions": "S 103 cells", "experimental": "(§7) To avoid loss of the apoptotic cells, which detach from monolayer culture and are washed away, cells were cultured in suspension above a one ml layer of 1% agarose per well of a 6-well plate. Two ml of cells at 1×10^5/ml growth medium were placed in each well and incubated at 37° C. with 5% CO2. Plates were agitated gently once per day. After drug exposure for 4 hr, the cells were centrifuged, resuspended in fresh medium and returned to the same wells for 48 hr. Cells were centrifuged at 1000 rpm for 10 min, resuspended in 0.5 ml 10% neutral buffered formalin and incubated at room temperature for 10 min. Centrifugation was repeated and cells were resuspended in 80% ethanol. A 25 μl aliquot was pipeted onto a glass slide and dried at room temperature until no moisture was evident. Cells were calorimetrically stained with TUNEL assay reagents (Trevigen) according to the protocol provided by the manufacturer."}, "[7]": {"test_system": "EOC cells RI82S", "assay": "TUNEL assay, EOC cells R182S", "type": "cell-based, human", "experimental": "as §7"}, "[8]": {"test_system": "Three established ovarian cancer cell lines and 19 ovarian cancer patient-derived cell samples", "assay": "Caspase-3 assay, distribution of apoptotic response over 22 cases", "type": "cell-based, human", "conditions": "of 22 cases, drugs tested separately", "experimental": "Ovarian cancer cell lines HEY (gift from Dr. J M Trent, (26)), A2780 and CP70 (gifts from Dr. T C Hamilton, (27)) were cultured at 37° C. in a 5% CO2 atmosphere. Culture medium varied with the cell line: […] All formulations contained 100 μg/ml streptomycin, 62.5 μg/ml penicillin and 2.5 μg/ml amphotericin. […] For drug treatments, approximately 1×10^5 cells in exponential growth were sub-cultured in a 25 cm^2 flask per treatment. […] With informed consent from 28 patients undergoing routine procedures at Yale-New Haven Hospital 100 to 200 ml of ascites fluid or pelvic washings were obtained. Epithelial cells were collected as previously described (28). Briefly, samples were centrifuged and the cellular pellet was resuspended in Hank's Balanced Salt Solution (HBSS; Gibco Invitrogen, Carlsbad, Calif.). The suspension was centrifuged at 1500 rpm for 10 mins at room temperature. The pellet was then resuspended in HBSS and layered onto LSM lymphocyte separation medium (ICN Biomedicals Inc, Aurora, Ill.) and centrifuged at 2000 rpm for 25 minutes at room temperature. The mononuclear cell-containing layer was collected and incubated with an anti-CD45 mAb conjugated to magnetic beads (Dynal, Oslo, Norway) at 4° C. with rotation for 30 minutes. Following this incubation, the cells were placed into a magnet and the unbound epithelial cells were collected, washed and placed into culture media. […] Remaining cells were cultured in primary culture medium as described above and evaluated for morphological evidence of malignancy by a pathologist. Viable, malignant cells were isolated from 21 of the 28 samples. In agreement with Lounis et al. (29), any fibroblastic cells in the isolated population disappeared after 2 to 3 passages and cells survived on average for 7 to 8 passages. […] Lysates were incubated on ice for 30 min, mixing every 5 min by gentle vortexing. […] Supernatants were frozen and stored at -70° C. Protein concentration was determined by BioRad Protein Assay (BioRad). […] CaspACETM Assay System, Colorimetric). […] Plates were incubated at 37° C. for 4 hr. Absorbance of the cleaved product was read at 405 nm in a Dynatech MR3000 plate reader. Blank values were subtracted and caspase-3 activity was expressed as the absorbance at 405 nm of the cleaved substrate (pNA). Drug treated samples were compared with samples which had not been treated to give a value called relative activity."}, "[9]": {"test_system": "CP70 cells", "assay": "Caspase-3 assay (dose response and time course), CP70 cells", "type": "cell-based, human", "conditions": "CP70, 0.1 μM, 30 hours treatment", "experimental": "as §1, with “For drug treatments, approximately 1×10^5 cells in exponential growth were sub-cultured in a 25 cm^2 flask per treatment. Carboplatin (Sigma C2538) or paclitaxel (Sigma T7402) was added to the media after the cells reached 60-70% confluence as described in the Results.” left out\nas §2, §3"}, "[10]": {"test_system": "A2780", "assay": "Clonogenic assay, A2780 cell line", "type": "cell-based", "conditions": "Homo sapiens, clonogenic survival, 4 hours drug exposure, 10-14 days", "experimental": "as §1\n(§8) Cells were seeded at 600 per 60 mm culture dish and incubated overnight to establish adherence then exposed to varying concentrations of drug for 4 hours. Medium was replaced and incubation was continued for 10-14 days. […] Colonies greater than 30 cells were counted. Percent survival was calculated based on the number of colonies in untreated dishes. […]"}, "[11]": {"test_system": "HEY", "assay": "Clonogenic assay, HEY cell line", "type": "cell-based, human", "experimental": "as §1, §8"}, "[12]": {"test_system": "invasive ovarian carcinoma", "conditions": "of 13 patients", "text": "Patients were monitored for disease recurrence based on physical symptoms, physical examination, CA-125 levels and radiologic imaging. Chemosensitivity is defined as no evidence of disease recurrence, based on the above monitoring, within 6 months of completing the chemotherapy regimen of carboplatin and paclitaxel. Sensitivity of six months is commonly used to define which patients are platinum-sensitive in order to direct second-line therapy (30)."}}}
{"molecule": "N.N.O=C([O-])C1(C(=O)[O-])CCC1.[Pt+2]", "note": "[Carboplatin]", "values": [{"measurement": "resistance of CP70 relative to A2780", "setting": "[1]; clonogenic IC50, CP70 vs A2780", "result": "about 25 fold"}, {"measurement": "caspase-3 activity", "setting": "[2]; A2780, 24 hour exposure", "result": "significant caspase-3 activity"}, {"measurement": "caspase-3 activity", "setting": "[2]; A2780, 48 hour treatment, 100 μg/ml", "result": "Optimal activity"}, {"measurement": "expression of the active forms of caspase-3", "setting": "[3]; CP70, 100 μg/ml for 48 hr", "result": "No active forms of caspase-3 are present"}, {"measurement": "expression of the active forms of caspase-3", "setting": "[4]; A2780, carboplatin treatment", "result": "moderate levels"}, {"measurement": "expression of the active forms of caspase-3", "setting": "[5]; EOC R182, 100 μg/ml for 48 hr", "result": "No active forms of caspase-3 are present"}, {"measurement": "percentage of cells that stain for apoptosis (TUNEL)", "setting": "[6]; 100 μg/ml", "result": 30.40, "unit": "%"}, {"measurement": "percentage of TUNEL-positive cells", "setting": "[7]; 100 μg/ml", "result": 90, "unit": "%"}, {"measurement": "Number of Cases Resistant (no increase of caspase-3 activity)", "setting": "[8]", "result": 1}, {"measurement": "Number of Cases Sensitive (increased caspase-3 activity relative to untreated samples)", "setting": "[8]", "result": 21}, {"measurement": "Number of Cases Resistant (no increase of caspase-3 activity)", "setting": "[8]; listed as carboplatin", "result": "one"}]}
{"molecule": "CC(=O)O[C@H]1C(=O)[C@@]2(C)[C@H]([C@H](OC(=O)c3ccccc3)[C@]3(O)C[C@H](OC(=O)[C@H](O)[C@@H](NC(=O)c4ccccc4)c4ccccc4)C(C)=C1C3(C)C)[C@]1(OC(C)=O)CO[C@@H]1C[C@@H]2O", "note": "[Paclitaxel]", "values": [{"measurement": "relative response among the three cell lines", "setting": "[1]; CP70 cells, clonogenic assay", "result": "most sensitive"}, {"measurement": "IC50", "setting": "[1]; Homo sapiens, CP70, clonogenic survival, 4 hours drug exposure, 10-14 days", "result": 18.6, "unit": "nM"}, {"measurement": "expression of the active forms of caspase-3", "setting": "[3]; CP70, 0.1 μM for 30 hr", "result": "induces the expression of the active forms of caspase-3"}, {"measurement": "expression of the active forms of caspase-3", "setting": "[4]; A2780, paclitaxel treatment", "result": "high levels"}, {"measurement": "expression of the active forms of caspase-3", "setting": "[5]; EOC R182, 0.1 μM for 30 hr", "result": "no expression of caspase-3 active forms"}, {"measurement": "caspase-3 activity", "setting": "[9]", "result": "significant caspase-3 activity"}, {"measurement": "increase in number of TUNEL-positive cells compared to the untreated controls", "setting": "[6]; 0.1 μM", "result": "10-20%"}, {"measurement": "IC50", "setting": "[10]", "result": 43.7, "unit": "nM"}, {"measurement": "relative response among the three cell lines", "setting": "[11]; HEY cells, clonogenic assay", "result": "most resistant"}, {"measurement": "IC50", "setting": "[11]; Homo sapiens, HEY, clonogenic survival, 4 hours drug exposure, 10-14 days", "result": 100, "unit": "nM"}, {"measurement": "increase in number of TUNEL-positive cells compared to the untreated controls", "setting": "[7]; 0.1 μM", "result": "30-40%"}, {"measurement": "Number of Cases Resistant (no increase of caspase-3 activity)", "setting": "[8]", "result": 12}, {"measurement": "Number of Cases Sensitive (increased caspase-3 activity relative to untreated samples)", "setting": "[8]", "result": 10}, {"measurement": "Number of Cases Resistant (no increase of caspase-3 activity)", "setting": "[8]; listed as paclitaxel", "result": "Twelve"}, {"measurement": "Number of Cases Sensitive (increased caspase-3 activity relative to untreated samples)", "setting": "[8]; listed as paclitaxel", "result": "Ten"}]}
{"molecule": "Carboplatin and Paclitaxel", "values": [{"measurement": "number of patients clinically responsive (chemo-sensitive)", "setting": "[12]; no evidence of disease recurrence for 6 months following completion of the regimen", "result": "seven"}, {"measurement": "number of patients chemo-resistant", "setting": "[12]; recurrence within 6 months of completing the regimen", "result": "six"}, {"measurement": "Number of Cases Resistant (no increase of caspase-3 activity)", "setting": "[8]", "result": 1}, {"measurement": "Number of Cases Sensitive (increased caspase-3 activity relative to untreated samples)", "setting": "[8]", "result": 10}]}
